This is an account of results in patent US7973072B2, “Substituted benzo-condensed cyclohexanone derivatives and the use thereof for medicament production” (Gruenenthal GmbH, priority 2005, dated 2011).

For data set [1], the target named is T1, human vanilloid receptor 1 (VR1) (Homo sapiens, UniProt Q8NER1).
T1 construct: expressed in transfected cells; host or cells: CHO K1 cells (ECACC), stably transfected
As to the kind of experiment: FLIPR Ca2+ functional study on human vanilloid receptor 1 (CHO K1 cells transfected with human VR1). Format: cell-based. To be noted: for inhibition at 10 µM: CHO-K1, test compound 10 μM, suppression of Ca2+ current after 100 nM capsaicin, relative to maximum inhibition with 10 μM capsaicin (CP), read-out: VR1 (human) (% inhibition compared to 10 μM CP); for pEC50: agonistic action. How it is done: Chinese hamster ovary cells (CHO K1 cells, European Collection of Cell Cultures (ECACC), England) are transfected stably with the human vanilloid receptor 1 (VR1) gene or the vanilloid receptor 1 (VR1) gene of the rat. For functional studies, these cells are plated out onto poly-D-lysine-coated black 96-well plates with a clear bottom (BD Biosciences, Heidelberg, Germany) in a density of 25 000 cells/well. The cells are incubated overnight at 37° C. and 5% CO2 in culture medium (Ham's Nutrient Mixture F12, Gibco Invitrogen GmbH, Karlsruhe, Germany) with 10% by volume of FBS (fetal bovine serum, Gibco Invitrogen GmbH, Karlsruhe, Germany), and 18 μg/ml of L-proline (Gibco Invitrogen GmbH, Karlsruhe, Germany). The next day, the cells are laden with 2 μM Fluo-4 and 0.01% by volume of Pluronic F127 (Molecular Probes Europe BV, Leiden, The Netherlands) in HBSS buffer (Hank's buffered saline solution, Gibco Invitrogen GmbH, Karlsruhe, Germany) at 37° C. for 30 min. Subsequently, the plates are washed 3 times with HBSS buffer and, after a further incubation of 15 minutes at room temperature, used for Ca^2+ measurement in the FLIPR assay. The Ca^2+-dependent fluorescence is measured before and after addition of substances λex=488 nm, λem=540 nm). The quantification is effected by measuring the highest fluorescence intensity (FC, fluorescence counts) over the time.
The FLIPR protocol consists of 2 substance additions. First, the compounds to be tested (10 μM) are pipetted onto the cells obtained according to Ia or Ib and the Ca^2+ current is compared with the control (capsaicin 10 μM). This gives rise to the result in % activation based on the Ca^2+ signal after addition of 10 μM capsaicin (CP). After incubation for 5 minutes, 100 nM capsaicin is applied and the current of Ca^2+ is likewise determined.
Desensitizing agonists and antagonists lead to a suppression in the Ca^2+ current. % inhibition is calculated compared to the maximum achievable inhibition with 10 μM capsaicin.
Triple determinations (n=3) are performed and they are repeated in at least 3 independent experiments (N=4).

Data set [2] has as its target T2, vanilloid receptor 1 (VR1/TRPV1) of the rat (Rattus norvegicus, UniProt O35433).
T2 construct: host or cells: rat dorsal root ganglia primary cells (Ia) or CHO K1 cells stably transfected with the rat VR1 gene (Ib)
As to the kind of experiment: FLIPR Ca2+ functional study on rat vanilloid receptor 1 (rat dorsal root ganglia cells or CHO K1 cells transfected with rat VR1). Type of data set: cell-based. Conditions: for activation at 10 µM / inhibition at 10 µM: CHO-K1, test compound 10 μM; for activation at 10 µM: % activation based on Ca2+ signal after 10 μM capsaicin (CP), read-out: VR1 (rat) (% stimulation compared to 10 μM CP); for inhibition at 10 µM: suppression of Ca2+ current after 100 nM capsaicin, relative to maximum inhibition with 10 μM capsaicin (CP), read-out: VR1 (rat) (% inhibition compared to 10 μM CP); for pEC50: agonistic action. How it is done:
The agonistic or antagonistic action of the substances to be studied on the vanilloid receptor 1 (VR1/TRPV1) of the rat species can be determined with the following assay. In this assay, the Ca^2+ current through the receptor channel is quantified with the aid of a Ca^2+-sensitive dye (Fluo-4 type, Molecular Probes Europe BV, Leiden the Netherlands) in a fluorescent imaging plate reader (FLIPR, Molecular Devices, Sunnyvale, USA).
Complete medium: 50 ml HAMS F12 Nutrient Mixture (Gibco Invitrogen GmbH, Karlsruhe, Germany) with
10% by volume of FCS (fetal calf serum, Gibco Invitrogen GmbH, Karlsruhe, Germany, heat-inactivated);
2 mM L-glutamine (Sigma, Munich, Germany);
1% by weight of AA solution (antibiotic/antimycotic solution, PAA, Pasching, Austria) and 25 ng/ml of NGF medium (2.5 S, Gibco Invitrogen GmbH, Karlsruhe, Germany)
Cell culture plate: poly-D-lysine-coated, black 96-hole plates with a clear bottom (96 well black/clear plate, BD Biosciences, Heidelberg, Germany) are additionally coated with laminin (Gibco Invitrogen GmbH, Karlsruhe, Germany) by diluting laminin to a concentration of 100 μg/ml with PBS (Ca—Mg-free PBS, Gibco Invitrogen GmbH, Karlsruhe, Germany). Aliquots having a concentration of 100 μg/ml of laminin are withdrawn and stored at −20° C. The aliquots are diluted with PBS in a ratio of 1:10 to 10 μg/ml of laminin and in each case 50 μl of the solution are pipetted into a well of the cell culture plate. The cell culture plates are incubated at 37° C. for at least two hours, the supernatant solution is removed by suction and the wells are each washed twice with PBS. The coated cell culture plates are stored with supernatant PBS which is not removed until directly before the application of the cells.
The spinal column is removed from beheaded rats and placed directly into cold HBSS buffer (Hank's buffered saline solution, Gibco Invitrogen GmbH, Karlsruhe, Germany), i.e. placed in an ice bath, which has been admixed with 1% by volume of an AA solution (antibiotic/antimycotic solution, PAA, Pasching, Austria). The spinal column is severed longitudinally and removed from the spinal canal together with fasciae. Subsequently, the dorsal root ganglia (DRGs) are removed and in turn stored in cold HBSS buffer admixed with 1% by volume of an […]. The DRGs freed completely of blood residues and spinal nerves are in each case transferred to 500 μl of cold type 2 collagenase (PAA, Pasching, Austria) and incubated at 37° C. for 35 minutes. After addition of 2.5% by volume of trypsin (PAA, Pasching, Austria), incubation is continued at 37° C. for a further 10 minutes. After complete incubation, the enzyme solution is cautiously pipetted off and the remaining DRGs are each admixed with 500 μl of complete medium.
The DRGs are each suspended repeatedly, drawn through cannulas No. 1, No. 12 and No. 16 by means of a syringe and transferred to 50 ml Falcon tubes which are made up to 15 ml with complete medium. The contents of each Falcon tube are in each case filtered through a 70 μm Falcon filter insert and centrifuged at 1200 revolutions and room temperature for 10 minutes. The resulting pellet is in each case taken up in 250 μl of complete medium and the cell count is determined.
The number of cells in the suspension is adjusted to 3 times 10^5 per ml and in each case 150 μl of this suspension are added to one well of the cell culture plates coated as described above. In the incubator, the plates are left to stand at 37° C., 5% by volume of CO2 and 95% relative air humidity for two to three days.
Subsequently, the cells are laden with 2 μM Fluo-4 and 0.01% by volume of Pluronic F127 (Molecular Probes Europe BV, Leiden, the Netherlands) in HBSS buffer (Hank's buffered saline solution, Gibco Invitrogen GmbH, Karlsruhe, Germany) at 37° C. for 30 min, washed 3× with HBSS buffer and, after a further incubation of 15 minutes, used in the FLIPR assay at room temperature for Ca^2+ measurement. […]

Broadly, the inhibition is the percentage by which the read-out fell short of the control. As usually defined, the pEC50 is the negative decadic logarithm of the EC50, by convention in mol/L. Low readings indicate a high EC50, high ones a low EC50. Usually melting point stands for the temperature of the solid-liquid transition. What is called pIC50 is the negative decadic logarithm of the IC50, by convention in mol/L. The low end stands for a high IC50, the high end for a low IC50.

pEC50, pIC50: −log10 of the molar value.

T1 sequence (Q8NER1 whole entry): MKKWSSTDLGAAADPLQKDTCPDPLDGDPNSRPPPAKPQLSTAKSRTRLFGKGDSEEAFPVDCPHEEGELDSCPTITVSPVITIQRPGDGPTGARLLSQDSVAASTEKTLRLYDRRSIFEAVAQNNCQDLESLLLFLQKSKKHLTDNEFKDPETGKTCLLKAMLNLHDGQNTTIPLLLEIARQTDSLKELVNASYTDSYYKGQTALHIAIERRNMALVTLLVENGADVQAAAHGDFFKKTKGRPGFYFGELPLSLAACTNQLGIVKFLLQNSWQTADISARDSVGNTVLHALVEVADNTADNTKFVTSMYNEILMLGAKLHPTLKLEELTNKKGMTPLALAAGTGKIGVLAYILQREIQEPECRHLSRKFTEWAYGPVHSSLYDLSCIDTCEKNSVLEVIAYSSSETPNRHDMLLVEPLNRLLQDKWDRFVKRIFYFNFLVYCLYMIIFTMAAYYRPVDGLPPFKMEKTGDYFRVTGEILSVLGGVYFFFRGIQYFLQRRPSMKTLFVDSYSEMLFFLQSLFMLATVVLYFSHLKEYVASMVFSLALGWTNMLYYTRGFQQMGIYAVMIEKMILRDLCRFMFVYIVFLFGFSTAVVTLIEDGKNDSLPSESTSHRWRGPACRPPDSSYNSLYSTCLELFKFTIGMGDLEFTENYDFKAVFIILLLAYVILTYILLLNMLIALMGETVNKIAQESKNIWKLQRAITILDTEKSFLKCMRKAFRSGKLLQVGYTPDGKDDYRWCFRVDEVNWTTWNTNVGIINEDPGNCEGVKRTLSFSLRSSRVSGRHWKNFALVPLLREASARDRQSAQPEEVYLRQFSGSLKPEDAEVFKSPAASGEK
T2 sequence (O35433 whole entry): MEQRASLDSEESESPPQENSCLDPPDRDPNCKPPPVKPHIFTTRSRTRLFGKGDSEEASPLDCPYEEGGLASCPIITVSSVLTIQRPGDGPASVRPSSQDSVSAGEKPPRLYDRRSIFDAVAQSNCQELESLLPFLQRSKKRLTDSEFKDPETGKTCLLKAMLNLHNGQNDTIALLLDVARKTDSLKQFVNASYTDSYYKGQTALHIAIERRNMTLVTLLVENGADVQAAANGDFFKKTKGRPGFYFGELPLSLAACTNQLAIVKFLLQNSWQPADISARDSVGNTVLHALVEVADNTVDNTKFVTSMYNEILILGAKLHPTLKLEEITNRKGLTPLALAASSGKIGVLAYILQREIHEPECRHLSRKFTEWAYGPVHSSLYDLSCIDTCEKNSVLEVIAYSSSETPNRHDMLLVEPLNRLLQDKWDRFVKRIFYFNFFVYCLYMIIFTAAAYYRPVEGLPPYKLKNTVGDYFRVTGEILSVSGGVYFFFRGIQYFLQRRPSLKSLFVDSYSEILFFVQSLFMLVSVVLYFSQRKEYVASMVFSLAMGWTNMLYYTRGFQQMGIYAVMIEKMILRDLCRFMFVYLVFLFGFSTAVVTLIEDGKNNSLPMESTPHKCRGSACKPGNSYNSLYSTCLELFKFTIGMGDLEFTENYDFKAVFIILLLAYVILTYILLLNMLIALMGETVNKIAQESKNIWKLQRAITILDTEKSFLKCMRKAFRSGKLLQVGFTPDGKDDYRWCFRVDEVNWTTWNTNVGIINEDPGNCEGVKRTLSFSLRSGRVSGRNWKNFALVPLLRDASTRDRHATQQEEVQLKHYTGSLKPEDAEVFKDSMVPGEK

`O=C(Nc1ccccc1)OCC1(COC(=O)Nc2ccccc2)CS(=O)(=O)c2ccccc2C1=O` [Example Compound 43, 3,3-bis(phenylcarbamoyloxymethyl)-1,1-dioxo-1λ^6-thiochroman-4-one] displayed a melting point of 72 to 78 °C. In data set [1], the inhibition at 10 µM is 9.79%. In data set [1] (FLIPR), the pEC50 was 5.05. Moreover, in data set [2], the activation at 10 µM was 48.5% and the inhibition at 10 µM was 83.9%. The molecule further gave a pEC50 in data set [2] (FLIPR) of 4.60.
On to `Cc1ccc2c(c1)[S+]([O-])CC(COC(=O)Nc1ccccc1)(COC(=O)Nc1ccccc1)C2=O` (stereo not drawn) [Example Compound 47, 3,3-bis(phenylcarbamoyloxymethyl)-7-methyl-1-oxo-1λ^4-thiochroman-4-one], for which the melting point was 65 to 73 °C. For the same molecule, the inhibition at 10 µM in data set [1] amounted to 59.2%. The pEC50 in data set [1] (FLIPR) is 4.87. Moreover, in data set [2], the activation at 10 µM stood at 11.8% and the inhibition at 10 µM turned out to be 61.5%. The pEC50 in data set [2] (FLIPR) was 4.69.
`Cc1ccc2c(c1)S(=O)(=O)CC(COC(=O)Nc1ccccc1)(COC(=O)Nc1ccccc1)C2=O` [Example Compound 48, 3,3-bis(phenylcarbamoyloxymethyl)-7-methyl-1,1-dioxo-1λ^6-thiochroman-4-one] had a melting point of 85 to 95 °C. The inhibition at 10 µM in data set [1] turned out to be 81.1%. Also, the pEC50 in data set [1] (FLIPR) was 5.73. In data set [2], the activation at 10 µM amounted to 64.9% and the inhibition at 10 µM was found to be 88.8%. In data set [2] (FLIPR), the pEC50 is 5.47.
For `CC(C)(C)c1ccc(NC(=O)OCC2(COC(=O)Nc3ccc(C(C)(C)C)cc3)CSc3ccccc3C2=O)cc1` [Example Compound 50, 3,3-bis(4-tert-butylphenylcarbamoyloxymethyl)thiochroman-4-one], the melting point was 78 to 85 °C. In addition, in data set [1], the inhibition at 10 µM turned out to be 0%. The molecule also had a pIC50 in data set [1] (FLIPR, antagonistic action) of less than 4.70. In addition, in data set [2], the activation at 10 µM worked out at 0% and the inhibition at 10 µM was 99.9%. This molecule had a pIC50 in data set [2] (FLIPR, antagonistic action) of 5.24.
